According to patent US11306092B2, “Amino indole compounds useful as TLR inhibitors” (BRISTOL-MYERS SQUIBB COMPANY, priority 2017, dated 2022):

Tests used:
Format in all cases: cell-based
human TLR9 = biological target: T1, human TLR9 (Homo sapiens, UniProt Q9NR96); assay: TLR9 inhibition reporter assay (HEK-Blue SEAP reporter); conditions: HEK-Blue cells overexpressing human TLR9; ODN2006 5 nM; 22 hour incubation
T1 construct: host or cells: HEK-Blue cells
T1 sequence (Q9NR96 26-1032): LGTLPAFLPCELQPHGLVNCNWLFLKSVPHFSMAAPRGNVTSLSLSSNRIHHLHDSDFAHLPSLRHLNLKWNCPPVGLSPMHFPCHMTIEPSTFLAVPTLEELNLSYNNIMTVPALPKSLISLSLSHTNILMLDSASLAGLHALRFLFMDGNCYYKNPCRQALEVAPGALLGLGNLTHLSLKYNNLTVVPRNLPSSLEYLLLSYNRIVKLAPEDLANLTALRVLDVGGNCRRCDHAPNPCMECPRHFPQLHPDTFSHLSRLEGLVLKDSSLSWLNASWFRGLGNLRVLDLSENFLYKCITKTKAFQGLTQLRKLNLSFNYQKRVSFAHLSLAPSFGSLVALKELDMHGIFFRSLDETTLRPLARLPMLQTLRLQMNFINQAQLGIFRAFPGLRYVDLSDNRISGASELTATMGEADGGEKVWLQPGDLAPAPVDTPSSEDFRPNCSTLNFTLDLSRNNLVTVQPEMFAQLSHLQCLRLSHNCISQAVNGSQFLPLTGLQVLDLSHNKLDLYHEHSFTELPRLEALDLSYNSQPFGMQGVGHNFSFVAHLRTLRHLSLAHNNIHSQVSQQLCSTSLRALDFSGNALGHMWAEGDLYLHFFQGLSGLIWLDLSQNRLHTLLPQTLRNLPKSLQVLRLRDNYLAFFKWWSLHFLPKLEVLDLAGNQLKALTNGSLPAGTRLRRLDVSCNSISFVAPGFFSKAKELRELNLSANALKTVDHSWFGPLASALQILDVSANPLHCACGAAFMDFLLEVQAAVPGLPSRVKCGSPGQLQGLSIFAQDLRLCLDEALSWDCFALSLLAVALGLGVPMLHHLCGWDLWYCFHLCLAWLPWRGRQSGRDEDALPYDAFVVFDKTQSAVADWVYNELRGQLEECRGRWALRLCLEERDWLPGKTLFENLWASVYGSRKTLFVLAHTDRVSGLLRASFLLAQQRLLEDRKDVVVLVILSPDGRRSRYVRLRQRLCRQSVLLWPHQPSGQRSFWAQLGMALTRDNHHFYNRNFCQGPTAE
In short: (§1)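 Screening used HEK-Blue cells overexpressing one human TLR (7, 8 or 9) and an IFN-β minimal promoter–NF-κB/AP-1 SEAP construct. Stimulation lasted 22 h at 37 °C with receptor-specific agonist: gardiquimod, R848 or ODN2006 at 7.5 μM, 15.9 μM and 5 nM.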

human TLR7 = biological target: T2, human TLR7 (Homo sapiens, UniProt Q9NYK1); assay: TLR7 inhibition reporter assay (HEK-Blue SEAP reporter); conditions: HEK-Blue cells overexpressing human TLR7; gardiquimod 7.5 μM; 22 hour incubation
T2 construct: host or cells: HEK-Blue cells
T2 sequence (Q9NYK1 27-1049): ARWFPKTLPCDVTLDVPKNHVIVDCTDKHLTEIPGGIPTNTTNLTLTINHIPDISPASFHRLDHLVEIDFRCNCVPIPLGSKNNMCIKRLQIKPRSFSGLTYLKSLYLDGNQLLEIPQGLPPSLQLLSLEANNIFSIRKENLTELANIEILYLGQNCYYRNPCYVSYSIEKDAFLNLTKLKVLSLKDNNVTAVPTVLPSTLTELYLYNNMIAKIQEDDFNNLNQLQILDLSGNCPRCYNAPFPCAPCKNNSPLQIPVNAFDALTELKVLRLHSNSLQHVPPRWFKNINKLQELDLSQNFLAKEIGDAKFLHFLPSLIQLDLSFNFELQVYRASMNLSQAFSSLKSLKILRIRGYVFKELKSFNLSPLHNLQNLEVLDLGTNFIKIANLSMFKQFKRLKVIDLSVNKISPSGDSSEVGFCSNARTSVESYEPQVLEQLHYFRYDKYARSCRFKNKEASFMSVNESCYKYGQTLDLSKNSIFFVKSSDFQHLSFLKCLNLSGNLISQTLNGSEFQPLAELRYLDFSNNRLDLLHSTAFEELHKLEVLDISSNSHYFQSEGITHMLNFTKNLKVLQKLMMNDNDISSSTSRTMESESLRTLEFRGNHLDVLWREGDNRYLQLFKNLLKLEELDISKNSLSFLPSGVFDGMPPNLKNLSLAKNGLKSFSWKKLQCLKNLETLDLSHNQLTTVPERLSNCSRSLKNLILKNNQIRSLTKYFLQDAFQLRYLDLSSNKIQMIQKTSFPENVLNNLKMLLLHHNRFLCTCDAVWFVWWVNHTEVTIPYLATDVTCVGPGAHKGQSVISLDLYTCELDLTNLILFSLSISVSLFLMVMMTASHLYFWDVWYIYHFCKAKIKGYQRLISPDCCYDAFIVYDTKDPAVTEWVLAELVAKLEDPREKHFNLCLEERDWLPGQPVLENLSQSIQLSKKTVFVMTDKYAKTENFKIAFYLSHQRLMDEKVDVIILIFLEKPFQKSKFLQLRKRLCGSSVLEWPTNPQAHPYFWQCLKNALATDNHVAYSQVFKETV
In short: as §1

human TLR8 = biological target: T3, human TLR8 (Homo sapiens, UniProt Q9NR97); assay: TLR8 inhibition reporter assay (HEK-Blue SEAP reporter); conditions: HEK-Blue cells overexpressing human TLR8; R848 15.9 μM; 22 hour incubation
T3 construct: host or cells: HEK-Blue cells
T3 sequence (Q9NR97 27-1041): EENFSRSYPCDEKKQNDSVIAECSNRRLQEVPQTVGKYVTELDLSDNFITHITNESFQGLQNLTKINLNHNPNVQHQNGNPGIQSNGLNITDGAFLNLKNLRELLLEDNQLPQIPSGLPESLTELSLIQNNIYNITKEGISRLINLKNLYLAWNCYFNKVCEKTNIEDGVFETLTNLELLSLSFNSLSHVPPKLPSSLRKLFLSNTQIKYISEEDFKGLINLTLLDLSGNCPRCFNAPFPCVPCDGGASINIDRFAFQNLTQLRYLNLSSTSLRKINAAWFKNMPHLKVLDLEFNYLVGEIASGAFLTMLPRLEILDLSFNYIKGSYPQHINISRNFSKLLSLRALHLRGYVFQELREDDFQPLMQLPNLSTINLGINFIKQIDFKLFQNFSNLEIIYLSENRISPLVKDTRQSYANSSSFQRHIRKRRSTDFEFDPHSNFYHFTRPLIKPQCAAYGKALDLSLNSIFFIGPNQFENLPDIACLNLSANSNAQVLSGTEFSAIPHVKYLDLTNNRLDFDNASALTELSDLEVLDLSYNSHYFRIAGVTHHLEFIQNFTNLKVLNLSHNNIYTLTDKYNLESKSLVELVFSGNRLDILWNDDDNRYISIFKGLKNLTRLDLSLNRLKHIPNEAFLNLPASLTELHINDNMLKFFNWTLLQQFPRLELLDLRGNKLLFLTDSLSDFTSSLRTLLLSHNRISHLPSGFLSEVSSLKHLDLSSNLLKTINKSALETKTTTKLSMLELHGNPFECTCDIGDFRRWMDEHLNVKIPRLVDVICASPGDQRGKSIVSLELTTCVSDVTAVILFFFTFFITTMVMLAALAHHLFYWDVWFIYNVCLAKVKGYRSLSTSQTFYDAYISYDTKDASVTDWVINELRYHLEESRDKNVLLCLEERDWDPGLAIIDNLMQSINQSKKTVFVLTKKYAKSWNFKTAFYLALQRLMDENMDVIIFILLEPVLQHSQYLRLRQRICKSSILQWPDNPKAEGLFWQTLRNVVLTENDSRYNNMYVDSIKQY
Method: TLR7/8/9 Inhibition Reporter Assays
HEK-Blue™-cells (Invivogen) overexpressing human TLR7, TLR8 or TLR9 receptors were used for screening inhibitors of these receptors using an inducible SEAP (secreted embryonic alkaline phosphatase) reporter gene under the control of the IFN-β minimal promoter fused to five NF-κB and AP-1-binding sites. Briefly, cells are seeded into Greiner 384 well plates (15000 cells per well for TLR7, 20,000 for TLR8 and 25,000 for TLR9) and then treated with test compounds in DMSO to yield a final dose response concentration range of 0.05 nM-50 μM. After a 30 minute compound pre-treatment at room temperature, the cells are then stimulated with a TLR7 ligand (gardiquimod at a final concentration of 7.5 μM), TLR8 ligand (R848 at a final concentration of 15.9 μM) or TLR9 ligand (ODN2006 at a final concentration of 5 nM) to activate NF-κB and AP-1 which induce the production of SEAP. After a 22 hour incubation at 37° C., 5% CO2, SEAP levels are determined with the addition of HEK-Blue™ Detection reagent (Invivogen), a cell culture medium that allows for detection of SEAP, according to manufacturer's specifications. The percent inhibition is determined as the % reduction in the HEK-Blue signal present in wells treated with agonist plus DMSO alone compared to wells treated with a known inhibitor.

Row | SMILES | IC50 (human TLR9) | IC50 (human TLR7) | IC50 (human TLR8)
1 | COc1ccc(-c2[nH]c3ccc(N4CCC(N(C)C)C4=O)cc3c2C(C)C)cc1OC (stereo not drawn) [Example 4, 1-(2-(3,4-dimethoxyphenyl)-3-isopropyl-1H-indol-5-yl)-3-(dimethylamino)pyrrolidin-2-one] | 9.21 µM | 67 nM | 81 nM
2 | Cc1cc(-c2[nH]c3ccc(N4CCC(OCCN(C)C)C4=O)cc3c2C(C)C)ccn1 (stereo not drawn) [Example 7, 3-(2-(dimethylamino)ethoxy)-1-(3-isopropyl-2-(2-methylpyridin-4-yl)-1H-indol-5-yl)pyrrolidin-2-one] | 17.3 µM | 1590 nM | 603 nM
3 | Cc1cc(-c2[nH]c3ccc(N4CCNC4=O)cc3c2C(C)C)ccn1 [Example 8, 1-(3-isopropyl-2-(2-methylpyridin-4-yl)-1H-indol-5-yl)imidazolidin-2-one] | > 50 µM | 92 nM | 25 nM
4 | CC(C)c1c(-c2ccnc3[nH]ncc23)[nH]c2ccc(NC(=O)[C@@H]3CCNC3)cc12 [Example 9, (R)—N-(3-isopropyl-2-(1H-pyrazolo[3,4-b]pyridin-4-yl)-1H-indol-5-yl)pyrrolidine-3-carboxamide] | 5.66 µM | 817 nM | 70 nM
5 | CC(C)c1c(-c2ccnc3[nH]ncc23)[nH]c2ccc(NC(=O)[C@H]3CCNC3)cc12 [Example 10, (S)—N-(3-isopropyl-2-(1H-pyrazolo[3,4-b]pyridin-4-yl)-1H-indol-5-yl)pyrrolidine-3-carboxamide] | 7.72 µM | 73 nM | 96 nM
6 | COc1ccc(-c2[nH]c3ccc(NC(=O)CN)cc3c2C(C)C)cc1OC [Example 11, 2-amino-N-(2-(3,4-dimethoxyphenyl)-3-isopropyl-1H-indol-5-yl)acetamide] | 8.6 µM | 290 nM | 17 nM
7 | COc1ccc(-c2[nH]c3ccc(NC(=O)CCCN)cc3c2C(C)C)cc1OC [Example 12, 4-amino-N-(2-(3,4-dimethoxyphenyl)-3-isopropyl-1H-indol-5-yl)butanamide] | 5.61 µM | 202 nM | 37 nM
8 | COc1ccc(-c2[nH]c3ccc(NC(=O)C4CCNC4)cc3c2C(C)C)cc1OC (stereo not drawn) [Example 13, N-(2-(3,4-dimethoxyphenyl)-3-isopropyl-1H-indol-5-yl) pyrrolidine-3-carboxamide] | 0.55 µM | 51 nM | 8.4 nM
9 | CCC[C@@H](N)C(=O)Nc1ccc2[nH]c(-c3ccc(OC)c(OC)c3)c(C(C)C)c2c1 [Example 14, (R)-2-amino-N-(2-(3,4-dimethoxyphenyl)-3-isopropyl-1H-indol-5-yl)pentanamide] | 7.83 µM | 347 nM | 67 nM
10 | COc1ccc(-c2[nH]c3ccc(NC(=O)C4CNCCO4)cc3c2C(C)C)cc1OC (stereo not drawn) [Example 15, N-(2-(3,4-dimethoxyphenyl)-3-isopropyl-1H-indol-5-yl)morpholine-2-carboxamide] | 7.46 µM | 25 nM | 3.4 nM
11 | COc1ccc(-c2[nH]c3ccc(NC(=O)[C@H](N)CC(C)C)cc3c2C(C)C)cc1OC [Example 16, (R)-2-amino-N-(2-(3,4-dimethoxyphenyl)-3-isopropyl-1H-indol-5-yl)-4-methylpentanamide] | 5.76 µM | 2070 nM | 47 nM
12 | CC[C@@H](C)[C@@H](N)C(=O)Nc1ccc2[nH]c(-c3ccc(OC)c(OC)c3)c(C(C)C)c2c1 [Example 17, (2R,3R)-2-amino-N-(2-(3,4-dimethoxyphenyl)-3-isopropyl-1H-indol-5-yl)-3-methylpentanamide] | 6 µM | 299 nM | 72 nM
13 | COc1ccc(-c2[nH]c3ccc(NC(=O)[C@@H](N)CCCN)cc3c2C(C)C)cc1OC [Example 20, (S)-2,5-diamino-N-(2-(3,4-dimethoxyphenyl)-3-isopropyl-1H-indol-5-yl)pentanamide] | > 50 µM | 125 nM | 106 nM
